Data published in ChEMBL document CHEMBL4673295 (Bioorg Med Chem, 2021).

Assays:
[1] = Binding affinity to Escherichia coli BL21 (DE3) HPPK in presence of ATP and MgCl2 by fluorimetry
[2] = Binding affinity to Escherichia coli HPPK by isothermal titration calorimetry
[3] = Inhibition of Escherichia coli HPPK incubated for 30 mins by thin layer chromatography
[4] = Binding affinity to Escherichia coli BL21 (DE3) HPPK incubated for 10 mins by fluorimetry

## Nc1nc2c(c(=O)[nH]1)N=C(CO)CN2
[1]
  Kd: 170 nM

## CC1(C)Nc2nc(N)[nH]c(=O)c2N=C1C(=O)NCCN1CC[C@@H](S(=O)(=O)C[C@H]2O[C@@H](n3cnc4c(N)ncnc43)[C@H](O)[C@@H]2O)C[C@@H]1C(=O)O
[2]
  Kd: 47 nM

## CC1(C)Nc2nc(N)[nH]c(=O)c2N=C1C(=O)NCCN1CC[C@@H](SC[C@H]2O[C@@H](n3cnc4c(N)ncnc43)[C@H](O)[C@@H]2O)C[C@@H]1C(=O)O
[2]
  Kd: 190 nM
[3]
  IC50: 380 nM

## Nc1ncnc2c1ncn2[C@@H]1O[C@H](COP(=O)(O)OP(=O)(O)OP(=O)(O)O)[C@@H](O)[C@H]1O [ADENOSINE TRIPHOSPHATE]
[4]
  Kd: 2600 nM
